Measured values from article PMC10726354, “Design, Synthesis, and Biological Evaluation of Small-Molecule-Based Radioligands with Improved Pharmacokinetic Properties for Imaging of Programmed Death Ligand 1” (Journal of Medicinal Chemistry, 2023).
Several values for one entry are separate records, joined by “and”; a condition that tells them apart may be missing. Equal values may be shown once. Entries after “also recorded” stand apart in the source; their conditions may differ.

Assays:
PD-L1 [1] = biological target: T1, PD-L1 (Homo sapiens, UniProt Q9NZQ7); experiment: Saturation binding assay on live PC3 PD-L1 overexpressing cells
T1 construct: expressed in transfected cells; host or cells: PC3 cells (human prostate carcinoma), stably transduced
Method: For assessing the binding affinity of compounds [^64Cu]Cu-1–6, PC3 cells transduced with PD-L1 were used. Dissociation constants in equilibrium (KD) and maximum number of binding sites (Bmax) were determined in a saturation binding assay. The assays were performed with the addition of 2.5% bovine serum albumin (BSA) in the medium to prevent unspecific binding to plastic wells, as reported previously for our first radioligands.[1]
For saturation binding, cells were trypsinized (0.05% Trypsin–EDTA, Gibco, USA), counted, and diluted to ∼160,000 cells/mL. 0.25 mL of the cell solution was then added to each well of a 48-well plate (Falcon Multiwell #353078) and grown for at least 2 days.
To determine the affinity (KD) and the number of binding sites (Bmax) of the herein described PD-L1 small-molecule ligands, saturation binding was performed in at least three independent experiments, as described before.[45] Cells were brought to room temperature followed by cooling on ice (each 15 min). The medium was removed and replaced with 200 μL assay buffer [PBS + 2.5% (w/v) BSA] for total binding (TB) conditions or assay buffer containing 300 μM BMS-1166 (in DMSO, resulting in 0.03% v/v) for the assessment NSB. After 15 min preincubation, 200 μL of each of the eight serial 1:1 dilutions (500 to 3.91 nM) of the respective radioligand was added (in triplicate). Cells were then incubated for 90 min at 4 °C, washed (3 × 1 min), and lysed in 500 μL of 0.1 M NaOH + 1% SDS. Radioactivity of the lysate was measured and decay corrected to a reference time (end of radiolabeling). An additional plate was subjected to the same conditions (preincubation, incubation, and washing) using PBS without BSA for each experiment, and the protein content of these lysates was determined by BCA assay. From CPM measurements, final values (pmol/mg protein) were calculated using the mean protein content and molar activity.
Processed data were then subjected to nonlinear iterative curve fitting (GraphPad Prism 9) to yield Bmax (in pmol/mg protein) and KD (in nM).

PD-L1 [2] = biological target: T1, PD-L1; experiment: Real-time radioligand binding (LigandTracer) on PC3 PD-L1 cells; details: for fold change of real-time binding affinity in presence vs absence of BSA: in either direction; for Kd: real-time binding
Method: Real-time radioligand binding using the ligand tracer platform was performed, similar to our previously reported tracer candidates. As we aimed at reducing the albumin binding of the herein presented compounds, we performed measurements in the presence or absence of a mouse physiological concentration of BSA (2.5 g/dL).
For real-time binding to assess kinetics (association rate constant ka and dissociation rate constant kd) and dissociation constant (KD), LigandTracer (Yellow, Ridgeview Instruments AB, Sweden) was employed. Approximately 1.2 × 10^6 cells (in 3 mL medium) were seeded to one side of a Petri dish (Nunc) 1 day prior to experiments as described before.[45] Binding was then performed at room temperature (using CO2-independent medium, Gibco #18045088, Thermo Fisher Germany) with or without BSA (2.5%). First, association was determined by incubation with two concentrations (10 and 40 nM, 90 min each) of the ^64Cu-labeled PD-L1 ligands. Dissociation was then assessed by replacement with fresh medium for at least 2 h. Data were acquired in decay-corrected counts per second (CPS), and binding data were then evaluated using TraceDrawer (1.9.2, Ridgeview Instruments AB, Sweden). Traces were inspected for spikes and irregularities and then normalized to their own baseline (=0%) and highest value (=100%). Data were then fitted using a one-to-one interaction, accounting for the bulk effect.

[3] = Small-animal PET, excretion pattern; type: in vivo, mouse; details: PET 0–2, 4–5 and 24–25 h p.i., i.v.
Method: Time points of PET imaging were 0–2, 4–5, and 24–25 h post injection (p.i.).

[4] = Radiotracer production data: stability of the product to in vivo experiments; type: physicochemical
[5] = Proteolytic stability in human serum, radio-HPLC; type: in vitro ADME; details: 37 °C
Method: Potential degradation of the ^64Cu-labeled radiotracers by proteolysis was investigated by incubation in human serum at 37 °C for up to 48 h. At three different time points (1, 24, and 48 h), a sample was withdrawn, and serum proteins were precipitated. The radio-HPLC chromatograms of all ^64Cu-labeled radiotracers (Figure S111A–D, system D) show a major peak at ∼6.4–6.7 min indicating the radiotracers. After 1 h, the radiotracers [^64Cu]Cu-3–6 are 94.1, 98.3, 94.0, and 96.3% intact, respectively.
Similar to PBS stability studies, the mixture containing the radiolabeled compound was diluted 1:10 with human serum. The solution was incubated at 37 °C with shaking at 300 rpm. At each time point (1, 24, and 48 h), an aliquot was withdrawn and added to a double amount of “supersol” (water containing 20% v/v EtOH, 5% v/v 5 mM aqueous EDTA, 0.5% v/v Triton X-100, 0.1% m/v saponin, 0.05% v/v 0.5 mM aqueous o-phenanthroline) to precipitate serum proteins. The suspension was cooled on ice for 5 min and then centrifugated for 5 min at 12,000g. A small amount of the supernatant was analyzed by radio-HPLC (PerkinElmer, Massachusetts, United States system D, Supporting Information). Evaluation and graphical plotting were performed with OriginPro 9.0.

[6] = Metabolite analysis in vivo; set-up: species or system mouse; details: 4 h postinjection
[7] = log D7.4 shake flask method, n-octanol/PBS; type: physicochemical; details: n-octanol/PBS pH 7.4, shake flask; mean ± SD, three experiments
Method: For assessing the lipophilicity of the ^64Cu-labeled PD-L1 radioligands, distribution coefficients (log D7.4 values) were determined using the shake flask method between n-octanol and PBS buffer (pH 7.4).
n-Octanol/water distribution coefficients were determined by the shake-flask method. The experiments for each radioligand was performed in triplicate. 30 μL of the reaction mixture was added to a 1.5 mL Eppendorf tube, which contained 570 μL of PBS (pH 7.4) and 600 μL n-octanol. After shaking at room temperature at 1500 rpm for 5 min, the mixture was centrifugated. An aliquot for each phase was carefully withdrawn, and the count rates were measured using a γ-counter (ISOMED2160 sodium iodide crystal detector). The mean values were calculated, corrected for the background activity, and the log D7.4 value was calculated with following formula [drawing 1]

[8] = saturation binding, live PC3 PD-L1 overexpressing cells, 2.5% BSA, 90 min at 4 °C, mean ± SD, at least three experiments, read-out: KD
[9] = saturation binding, live PC3 PD-L1 overexpressing cells, 2.5% BSA, mean ± SD
[10] = medium only (no BSA), n = 2, mean ± S.D.
[11] = medium only (no BSA), n = 2, mean ± S.D., room temperature
[12] = supplementary CSV, read-out: KD [nM], saturation binding assay

T1 sequence (Q9NZQ7 19-290): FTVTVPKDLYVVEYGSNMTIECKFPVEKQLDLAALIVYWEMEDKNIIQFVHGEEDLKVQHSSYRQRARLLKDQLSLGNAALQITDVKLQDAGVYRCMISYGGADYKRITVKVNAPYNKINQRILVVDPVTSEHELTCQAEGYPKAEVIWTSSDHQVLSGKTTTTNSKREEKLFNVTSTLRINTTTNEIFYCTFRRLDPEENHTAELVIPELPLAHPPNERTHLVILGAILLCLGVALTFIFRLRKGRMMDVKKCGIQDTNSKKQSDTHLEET

Compound | Kd (PD-L1 [1]; [8]) | Bmax (maximum number of binding sites) (PD-L1 [1]; [9]) | fold change of real-time binding affinity in presence vs absence of BSA (PD-L1 [2]) | Bmax [normalized (%)] (PD-L1 [2]; medium + 2.5% BSA, n = 1) | ka (association rate constant) (PD-L1 [2]; medium + 2.5% BSA, n = 1) | Bmax [normalized (%)] (PD-L1 [2]; [10]) | ka (association rate constant) (PD-L1 [2]; [11]) | Kd (PD-L1 [2]; medium + 2.5% BSA, n = 1) | Kd (PD-L1 [2]; [10]) | excretion / clearance pattern (PET) [3] | Stability of the product to in vivo experiments [4] | intact radiotracer in human serum after 1 h [5] | stability in circulation (metabolite analysis) [6] | log D7.4 [7] | intact radiotracer in human serum at 48 h ([5]; 48 h) | Kd (PD-L1 [1]; [12])
Cc1c(COc2cc(OCc3cncc(C#N)c3)c(CN[C@@H](CS(=O)(=O)O)C(=O)NCCS(=O)(=O)O)cc2Cl)cccc1-c1cccc(OCc2cn(CCCN3CCN(C(=O)[C@H](CS(=O)(=O)O)NC(=O)CC[C@H](C(=O)O)N4CCN(CC(=O)O)CCN(CC(=O)O)CC4)CC3)nn2)c1C.[64Cu+2] [[^64Cu]Cu-1] | 80.5 ± 5.02 nM | 7.05 pmol·mg^–1 and 7.05 ± 0.99 pmol·mg^–1 | ≤ 2 fold | 76.2% | 1410 M/s | 186 ± 40.2% | (2.85 ± 0.07) × 10^3 (M s)^−1 | 119 nM | 60 nM and 60.2 nM | mixed hepatobiliary and renal clearance | > 99% |  |  |  |  | 
Cc1c(COc2cc(OCc3cncc(S(C)(=O)=O)c3)c(CN[C@@H](CS(=O)(=O)O)C(=O)NCCS(=O)(=O)O)cc2Cl)cccc1-c1cccc(OCc2cn(CCCN3CCN(C(=O)[C@H](CS(=O)(=O)O)NC(=O)CC[C@H](C(=O)O)N4CCN(CC(=O)O)CCN(CC(=O)O)CC4)CC3)nn2)c1C.[64Cu+2] [[^64Cu]Cu-3] | 93.7 ± 10.8 nM | 8.51 ± 0.48 pmol·mg^–1 |  | 46.6% | 2970 M/s | 95.9 ± 6.49% | (6.59 ± 0.50) × 10^3 (M s)^−1 | 54.3 nM | 21 nM and 20.9 nM | predominantly a fast renal and lower hepatobiliary clearance | > 99% | 94.1% | overall stability of the compound in circulation |  |  | 
Cc1c(COc2cc(OCc3cncc(S(C)(=O)=O)c3)c(CN[C@@H](CS(=O)(=O)O)C(=O)NCCP(=O)(O)O)cc2Cl)cccc1-c1cccc(OCc2cn(CCCN3CCN(C(=O)[C@H](CP(=O)(O)O)NC(=O)CC[C@H](C(=O)O)N4CCN(CC(=O)O)CCN(CC(=O)O)CC4)CC3)nn2)c1C.[64Cu+2] [[^64Cu]Cu-6] | 532 nM and 533 nM | 10.3 ± 0.74 pmol·mg^–1 | ≤ 2 fold | 65.3% | 3590 M/s | 107 ± 7.16% | (5.30 ± 0.52) × 10^3 (M s)^−1 | 41.4 nM | 22 nM and 22.2 nM |  | > 99% | 96.3% |  | –4.28 ± 0.08 | 93.4% | 
Cc1c(COc2cc(OCc3cncc(S(C)(=O)=O)c3)c(CN[C@@H](CS(=O)(=O)O)C(=O)NCCP(=O)(O)O)cc2Cl)cccc1-c1cccc(OCc2cn(CCCN3CCN(C(=O)[C@H](CS(=O)(=O)O)NC(=O)CC[C@H](C(=O)O)N4CCN(CC(=O)O)CCN(CC(=O)O)CC4)CC3)nn2)c1C.[64Cu+2] [[^64Cu]Cu-5] | 112 ± 11 nM | 19.1 pmol·mg^–1 and 19.1 ± 0.67 pmol·mg^–1 | ≤ 2 fold | 219% | 1130 M/s | 446 ± 274% | (1.14 ± 0.60) × 10^3 (M s)^−1 | 100 nM | 110 ± 53 nM |  | > 99% | 94.0% |  |  |  | 82.4 nM
Cc1c(COc2cc(OCc3cncc(S(C)(=O)=O)c3)c(CN[C@@H](CS(=O)(=O)O)C(=O)NCCP(=O)(O)O)cc2Cl)cccc1-c1cccc(OCc2cn(CCCN3CCN(C(=O)CC[C@H](C(=O)O)N4CCN(CC(=O)O)CCN(CC(=O)O)CC4)CC3)nn2)c1C.[64Cu+2] [[^64Cu]Cu-4] | 82.4 ± 7.42 nM | 10.7 pmol·mg^–1 and 10.7 ± 1.34 pmol·mg^–1 |  | 883% | 230 M/s | 846 ± 451% | (0.56 ± 0.35) × 10^3 (M s)^−1 | 744 nM | 201 ± 149 nM | almost exclusive hepatobiliary elimination; also recorded: primarily hepatobiliary clearance | > 99% | 98.3% |  | –3.07 ± 0.02 |  | 112 nM
